We go through 3 molecules from paper PMC5590075, “Synthesis, Antimicrobial, and Antioxidant Activities of Chalcogen-Containing Nitrone Derivatives from (R)-citronellal” (Medicines, 2017).

≈ marks a conversion by molar mass, not a printed value. Bounds are passed on as bounds.

Common to all, as to assay type: cell-based
For experiment [1], the system named is all the tested bacteria. Nature of the experiment: MIC and MBC, macro dilution tube method, summary over the panel. The note with it: read-out: MIC and MBC values. An excerpt:
(§1) To evaluate the antimicrobial potential of the synthesized compounds, the following reference strains of bacteria, that are economically important in foods, were employed: Gram-positive Listeria monocytogenes ATCC 7644, Staphylococcus aureus ATCC 25923, and Bacillus cereus ATCC 11778; Gram-negative Salmonella Typhimurium ATCC 14028, Escherichia coli O157: H7 NCTC 12900 and the clinically important Pseudomonas aeruginosa ATCC 15442.
(§2) The antimicrobial activity assay using the disk diffusion test was realized using the methodology that is recommended by the Clinical Laboratory Standards Institute (CLSI). The determination of the minimum inhibitory concentration (MIC) and minimum bactericidal concentration (MBC) was performed using the macro dilution tube method, in accordance with Rota et al., with modifications. Details of these assays are provided in the Supplemental Material. […]
(§3) 2.2. Determination of the minimum inhibitory concentration (MIC) and minimum bactericidal concentration
(§4) The MIC was determined using the macro dilution tube method, in accordance with Rota et al.
[5], with modifications. […]
(§5) The ABTS radical scavenging activity was determined according to the method described by Erel. Different concentrations of compounds 5a–d and 10 (10–500 μ M) were mixed with the ABTS+ solution, and the decrease in the absorbance at 734 nm was recorded.

In experiment [2] the test system is Pseudomonas aeruginosa ATCC 15442. Nature of the experiment: MIC and MBC, macro dilution tube method. To be noted: P. aeruginosa; for MBC: 10^5 CFU.mL^−1.
Text: as §1, §2, §3, §4
(§6) [5], with modifications. The tested concentrations were 20, 18, 15, 12, 10, 7 and 5 μL.mL‐1 of each compound. In a tube with 1 mL of MH broth, was inoculated 105 UFC.mL‐1, the compound in a predetermined concentration and, to facilitate the solubility, 2 drops of TWEEN 80. The mixture was incubated at 37 °C for 24 h under stirring (150 rpm). As the positive control, MH broth and inoculum concentration in 105 UFC.mL‐1 and as the negative control MH, the inoculum concentration in 105 UFC∙mL‐1 and streptomycin (10 μg) were used. MIC was defined as the lowest concentration of […]
(§7) After 24 h, tubes with no visible growth were seeded in a […] TSA‐YE tube and incubated at 37 °C for 24 h. The MBC is the lowest concentration of compound where 99.9% of the initially inoculated cells were killed. […]
(§8) 2.4. Radical Scavenging Activity […]
as §5

The subject of experiment [3] is Salmonella Typhimurium ATCC 14028. Nature of the experiment: MIC and MBC, macro dilution tube method. The note with it: S. Typhimurium; for MBC: 10^5 CFU.mL^−1; for MIC: 10^5 CFU.mL^−1, 24 h.
Text: as §1, §2, §3, §4, §6, §7, §8, §5

Take `CC(C)=CCCC(C)C/C=[N+](\C)[O-]` (stereo not drawn) [5d, (E)-N,3,7-trimethyloct-6-en-1-imine oxide]: the MBC in experiment [1] fell in the range of 1130 to 1260 µM (≈ 207 to 231 µg/mL).
`CC(C)=CCCC(C)(C/C=[N+](\C)[O-])Sc1ccccc1` (stereo not drawn) [5c, (E)-N,3,7-trimethyl-3-(phenylthio)oct-6-en-1-imine oxide]: the MBC was 0.61 mM.mL^−1 in experiment [2], above 0.69 mM.mL^−1 in experiment [3] and 520 to 690 µM (≈ 152 to 201 µg/mL) in experiment [1]. The molecule further returned an MIC in experiment [3] above 0.69 mM.mL^−1.
With `CC(C)=CCC[C@@H](C)C(/C=N/O)[Se]c1ccccc1` (stereo partly drawn) [compound 10, (3R,E)-3,7-dimethyl-2-(phenylselanyl)oct-6-enal oxime], the MBC in experiment [2] and in experiment [3] was above 0.70 mM.mL^−1 throughout. The MIC in experiment [2] (10^5 CFU.mL^−1, 24 h) is recorded as above 0.70 mM.mL^−1; in experiment [3], above 0.70 mM.mL^−1.
